What was measured:
EGFR(S752-I759del) = target: T1, EGFR(S752-I759del) (Homo sapiens, UniProt P00533, DEL752-759); experiment: kinome scan; format: binding; details: 10 µM
T1 construct: purchased DiscoverX (KINOMEscan)

Abelson (Abl) = Abelson (Abl) (Homo sapiens, UniProt P00519); experiment: kinome scan; format: binding; design: T7 phage fusion (kinase-tagged phage); purchased DiscoverX (Ambit Biosciences); host or cells: BL21-derived E. coli (T7 phage); details: read-out: Kinome scan (% of control at 10 µM)
Experimental: The kinome scan analysis was performed using the DiscoverX platform (www.discoverx.com). Briefly, T7 kinase-tagged phage strains are grown in parallel in 24-well or 96-well blocks in a BL21-derived E. coli host for 90 min until lysis. Lysates are centrifuged at 6,000 x g and filtered with a 0.2 µm filter to remove cell debris. Streptavidin-coated magnetic beads are treated with biotinylated kinase ligands for 30 min at room temperature to generate the affinity resin. Bound beads are blocked with excess biotin and washed with blocking buffer (SeaBlock (Pierce), 1% BSA, 0.05% Tween 20, and 1 mM DTT) to remove unbound ligand and reduce nonspecific phage binding. […] The final concentration of test compound is 10 µM. Assay plates are incubated at room temperature with shaking for 1 h. Affinity beads are treated four times with washing buffer (1X PBS, 0.05% Tween 20, and 1 mM DTT) to remove unbound phage. […] Q RT PCR is used to measure the amount of phage in each eluate (which is proportional to the amount of kinase bound). […]
Hits are identified by an ultra-sensitive quantitative PCR detecting the specific DNA tag linked to each kinase (Supplementary Figure S2). The drug is used at a concentration of 10 µM and results are expressed as the percentage of signal (kinase PCR detection) with respect to DMSO control conditions. […]

DAPK1 = target: T2, DAPK1 (Homo sapiens, UniProt P53355); experiment: kinome scan; format: binding; details: 10 µM
T2 construct: purchased DiscoverX (KINOMEscan)

PIK3CA(E545K) = target: T3, PIK3CA(E545K) (Homo sapiens, UniProt P42336, E545K); experiment: kinome scan; format: binding; details: 10 µM
T3 construct: purchased DiscoverX (KINOMEscan)

MAP4K3 = target: T4, MAP4K3 (Homo sapiens, UniProt Q8IVH8); experiment: kinome scan; format: binding; details: 10 µM
T4 construct: purchased DiscoverX (KINOMEscan)

PRKCH = target: T5, PRKCH (Homo sapiens, UniProt P24723); experiment: kinome scan; format: binding; details: 10 µM
T5 construct: purchased DiscoverX (KINOMEscan)

RIOK3 = target: T6, RIOK3 (Homo sapiens, UniProt O14730); experiment: kinome scan; format: binding; details: 10 µM
T6 construct: purchased DiscoverX (KINOMEscan)

TAOK1 = target: T7, TAOK1 (Homo sapiens, UniProt Q7L7X3); experiment: kinome scan; format: binding; details: 10 µM
T7 construct: purchased DiscoverX (KINOMEscan)

MST1R = target: T8, MST1R (Homo sapiens, UniProt Q04912); experiment: kinome scan; format: binding; details: 10 µM
T8 construct: purchased DiscoverX (KINOMEscan)

ADCK4 = target: T9, ADCK4 (Homo sapiens, UniProt Q96D53); experiment: kinome scan; format: binding; details: 10 µM
T9 construct: purchased DiscoverX (KINOMEscan)

CLK4 = target: T10, CLK4 (Homo sapiens, UniProt Q9HAZ1); experiment: kinome scan; format: binding; details: 10 µM
T10 construct: purchased DiscoverX (KINOMEscan)

PCTK1 = target: T11, PCTK1 (Homo sapiens, UniProt Q00536); experiment: kinome scan; format: binding; details: 10 µM
T11 construct: purchased DiscoverX (KINOMEscan)

[1] = test system: CGR8EF1αS,RLuc-Tα1,FLuc cells; experiment: neural differentiation, Dual Luciferase Reporter Assay (FLuc/RLuc); format: cell-based, mouse; details: 72 h, normalized to DMSO
Experimental: The CGR8 mouse PSC were cultured as described ([Suter et al., 2009]). For neural induction, CGR8 cells were plated in 96-well plates at a density of 10,000 cells/cm^2 on gelatine-coated cell culture plates, in differentiation medium [BHK-21 medium supplemented with 20% foetal calf serum (Thermofisher), L-glutamine 2 mM (Thermofisher), non-essential amino acids (1X, Thermofisher), sodium pyruvate 1 mM (Thermofisher), penicillin/streptomycin 50 U/ml (Thermofisher)]. CGR8EF1αS,RLuc-Tα1,FLuc cells were described in ([Suter et al., 2009]) and were cultured as described above. Luminescence assays were directly performed in 96-well plates with the Dual Luciferase Reporter Assay System (Promega) according to the manufacturer’s instructions. Luminescence was measured with the SpectraMax L Microplate luminometer (Molecular Devices). Cell viability in the wells was measured by the addition of propidium iodide 1 µg/ml in 100 µL of PBS and fluorescence was assessed in each well using a FluoStar Optima reader (Pharmaceutical Technology Group at the University of Geneva).
The CGR8 PSC line was stably transduced with a dual promoter/reporter gene construct containing a ubiquitous promoter (EF1αS) controlling the expression of Renilla Luciferase (RLuc) and also an early neural-specific promoter (Tα1), controlling the expression of Firefly Luciferase (FLuc). […]

PIK3CA(E542K) = target: T12, PIK3CA(E542K) (Homo sapiens, UniProt P42336, E542K); experiment: kinome scan; format: binding; details: 10 µM
T12 construct: purchased DiscoverX (KINOMEscan)

PFTK1 = target: T13, PFTK1 (Homo sapiens, UniProt O94921); experiment: kinome scan; format: binding; details: 10 µM
T13 construct: purchased DiscoverX (KINOMEscan)

HeLa cells = experiment: LC3B positive autophagosomes, immunofluorescent staining; format: cell-based; details: 10 µM, three days
Experimental: Cells were fixed with PBS containing 0.5% of para-formaldehyde for 15 min at room temperature. After three washing steps in PBS, cells were permeabilized with PBS containing 0.3% of Triton X-100 (Sigma) for 1 h at room temperature. After washing with PBS three times, cells were incubated overnight with the anti-LC3B antibody in PBS with 1% bovine serum albumin (Sigma) at 4°C. After three washing steps in PBS, cells were incubated with the fluorescent secondary antibody for 90 min at 4°C in PBS with 1% bovine serum albumin. They were then incubated with […] DAPI (Thermofisher) in PBS for 15 min. After washing with PBS, cells were rinsed once in water prior to mounting in the FluorSave reagent (Millipore).
Depending of these transitory environmental conditions, autophagy can either promote survival or apoptosis ([Degtyarev et al., 2008]). PIK/AKT pathway inhibition has been reported to increase cell autophagy ([Palmieri et al., 2017]). More specifically, PIP4K2C has been described as a down-regulator of autophagy ([Sharma et al., 2019]).

ABL1-phosphorylated = target: T14, ABL1-phosphorylated (Homo sapiens, UniProt P00519); experiment: kinome scan; format: binding; details: 10 µM
T14 construct: purchased DiscoverX (KINOMEscan)

JNK3 = target: T15, JNK3 (Homo sapiens, UniProt P53779); experiment: kinome scan; format: binding; details: 10 µM
T15 construct: purchased DiscoverX (KINOMEscan)

p38-beta = target: T16, p38-beta (Homo sapiens, UniProt Q15759); experiment: kinome scan; format: binding; details: 10 µM
T16 construct: purchased DiscoverX (KINOMEscan)

EGFR(L861Q) = target: T17, EGFR(L861Q) (Homo sapiens, UniProt P00533, L861Q); experiment: kinome scan; format: binding; details: 10 µM
T17 construct: purchased DiscoverX (KINOMEscan)

YES = target: T18, YES (Homo sapiens, UniProt P07947); experiment: kinome scan; format: binding; details: 10 µM
T18 construct: purchased DiscoverX (KINOMEscan)

ACVR1 = target: T19, ACVR1 (Homo sapiens, UniProt Q04771); experiment: kinome scan; format: binding; details: 10 µM
T19 construct: purchased DiscoverX (KINOMEscan)
T19 sequence (Q04771 21-509): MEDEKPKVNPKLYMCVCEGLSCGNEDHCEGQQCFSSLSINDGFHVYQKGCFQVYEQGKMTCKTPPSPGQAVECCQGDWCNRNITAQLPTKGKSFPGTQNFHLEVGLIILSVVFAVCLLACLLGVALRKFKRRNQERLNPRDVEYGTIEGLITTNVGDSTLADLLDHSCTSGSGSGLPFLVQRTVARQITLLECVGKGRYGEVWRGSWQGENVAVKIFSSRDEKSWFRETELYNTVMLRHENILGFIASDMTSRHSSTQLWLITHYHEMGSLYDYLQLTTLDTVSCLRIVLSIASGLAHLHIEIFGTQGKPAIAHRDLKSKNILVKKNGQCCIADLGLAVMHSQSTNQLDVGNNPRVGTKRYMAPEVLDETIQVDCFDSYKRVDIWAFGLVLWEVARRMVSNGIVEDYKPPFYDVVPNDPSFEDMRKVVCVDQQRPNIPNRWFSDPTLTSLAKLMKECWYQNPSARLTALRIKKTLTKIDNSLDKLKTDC

T12 sequence (P42336 whole entry E542K): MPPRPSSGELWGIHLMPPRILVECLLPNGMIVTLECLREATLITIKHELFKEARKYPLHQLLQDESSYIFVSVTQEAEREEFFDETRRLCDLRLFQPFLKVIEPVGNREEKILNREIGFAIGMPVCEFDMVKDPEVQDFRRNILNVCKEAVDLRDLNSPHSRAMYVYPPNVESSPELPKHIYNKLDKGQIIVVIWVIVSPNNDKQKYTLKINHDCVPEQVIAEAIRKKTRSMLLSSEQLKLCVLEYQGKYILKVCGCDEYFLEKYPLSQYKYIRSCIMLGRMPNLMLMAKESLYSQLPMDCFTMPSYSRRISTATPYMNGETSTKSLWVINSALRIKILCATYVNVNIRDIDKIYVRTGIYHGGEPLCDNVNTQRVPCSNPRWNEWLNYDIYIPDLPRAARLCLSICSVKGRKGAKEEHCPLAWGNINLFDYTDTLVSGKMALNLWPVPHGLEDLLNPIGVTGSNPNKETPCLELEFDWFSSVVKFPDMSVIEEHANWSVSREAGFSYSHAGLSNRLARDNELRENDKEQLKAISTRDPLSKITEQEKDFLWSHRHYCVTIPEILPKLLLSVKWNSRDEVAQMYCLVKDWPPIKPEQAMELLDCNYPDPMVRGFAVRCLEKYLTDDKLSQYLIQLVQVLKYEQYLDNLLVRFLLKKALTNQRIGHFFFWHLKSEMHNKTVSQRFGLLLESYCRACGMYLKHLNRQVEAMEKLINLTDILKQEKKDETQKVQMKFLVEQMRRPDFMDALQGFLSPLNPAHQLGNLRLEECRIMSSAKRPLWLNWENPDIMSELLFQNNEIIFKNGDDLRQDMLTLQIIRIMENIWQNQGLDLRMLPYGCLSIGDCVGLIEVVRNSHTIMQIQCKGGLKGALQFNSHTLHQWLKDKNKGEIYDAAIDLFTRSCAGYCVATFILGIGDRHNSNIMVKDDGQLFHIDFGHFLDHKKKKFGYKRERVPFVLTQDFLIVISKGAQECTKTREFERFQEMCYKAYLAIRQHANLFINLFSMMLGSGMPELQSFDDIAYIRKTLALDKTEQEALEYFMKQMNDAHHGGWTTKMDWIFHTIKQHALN
T8 sequence (Q04912 25-1400): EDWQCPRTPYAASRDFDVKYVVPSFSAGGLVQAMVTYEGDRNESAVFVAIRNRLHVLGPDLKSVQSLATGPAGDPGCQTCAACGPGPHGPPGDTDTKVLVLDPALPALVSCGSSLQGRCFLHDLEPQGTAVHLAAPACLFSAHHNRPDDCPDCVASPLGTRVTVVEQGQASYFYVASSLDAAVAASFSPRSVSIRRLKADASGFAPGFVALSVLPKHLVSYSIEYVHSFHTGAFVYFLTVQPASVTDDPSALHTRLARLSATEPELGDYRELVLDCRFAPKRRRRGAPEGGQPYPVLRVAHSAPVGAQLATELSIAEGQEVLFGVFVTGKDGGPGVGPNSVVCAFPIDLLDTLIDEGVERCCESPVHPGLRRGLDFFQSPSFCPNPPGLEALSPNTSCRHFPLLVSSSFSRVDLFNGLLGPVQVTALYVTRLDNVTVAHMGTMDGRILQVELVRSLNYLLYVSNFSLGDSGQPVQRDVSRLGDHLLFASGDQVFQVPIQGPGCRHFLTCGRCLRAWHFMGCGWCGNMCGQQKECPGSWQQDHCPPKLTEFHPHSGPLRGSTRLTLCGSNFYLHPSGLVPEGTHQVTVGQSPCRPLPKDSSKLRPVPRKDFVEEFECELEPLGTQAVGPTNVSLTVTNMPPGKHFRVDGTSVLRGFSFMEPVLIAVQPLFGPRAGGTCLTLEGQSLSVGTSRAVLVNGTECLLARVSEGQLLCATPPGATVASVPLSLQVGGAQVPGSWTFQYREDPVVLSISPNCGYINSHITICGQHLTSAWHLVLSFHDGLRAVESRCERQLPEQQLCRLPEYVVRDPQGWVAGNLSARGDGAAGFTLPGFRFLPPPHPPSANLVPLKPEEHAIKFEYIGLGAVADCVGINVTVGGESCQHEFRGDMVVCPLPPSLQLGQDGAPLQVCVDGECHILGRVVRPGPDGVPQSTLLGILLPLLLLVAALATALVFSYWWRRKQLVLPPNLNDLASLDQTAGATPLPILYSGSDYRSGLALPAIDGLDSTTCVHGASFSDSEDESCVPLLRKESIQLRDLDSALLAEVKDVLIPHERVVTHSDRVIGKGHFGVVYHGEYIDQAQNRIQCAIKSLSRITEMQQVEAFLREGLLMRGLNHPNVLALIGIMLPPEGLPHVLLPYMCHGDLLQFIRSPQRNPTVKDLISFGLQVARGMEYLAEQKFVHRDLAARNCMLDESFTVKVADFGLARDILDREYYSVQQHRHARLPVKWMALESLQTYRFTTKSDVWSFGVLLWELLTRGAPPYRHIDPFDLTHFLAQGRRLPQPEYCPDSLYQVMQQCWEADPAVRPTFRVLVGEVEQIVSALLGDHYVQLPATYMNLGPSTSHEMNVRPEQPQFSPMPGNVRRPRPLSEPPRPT
T3 sequence (P42336 whole entry E545K): as the sequence (P42336 whole entry E542K) above, with K542E, E545K counted along it
T7 sequence (Q7L7X3 whole entry): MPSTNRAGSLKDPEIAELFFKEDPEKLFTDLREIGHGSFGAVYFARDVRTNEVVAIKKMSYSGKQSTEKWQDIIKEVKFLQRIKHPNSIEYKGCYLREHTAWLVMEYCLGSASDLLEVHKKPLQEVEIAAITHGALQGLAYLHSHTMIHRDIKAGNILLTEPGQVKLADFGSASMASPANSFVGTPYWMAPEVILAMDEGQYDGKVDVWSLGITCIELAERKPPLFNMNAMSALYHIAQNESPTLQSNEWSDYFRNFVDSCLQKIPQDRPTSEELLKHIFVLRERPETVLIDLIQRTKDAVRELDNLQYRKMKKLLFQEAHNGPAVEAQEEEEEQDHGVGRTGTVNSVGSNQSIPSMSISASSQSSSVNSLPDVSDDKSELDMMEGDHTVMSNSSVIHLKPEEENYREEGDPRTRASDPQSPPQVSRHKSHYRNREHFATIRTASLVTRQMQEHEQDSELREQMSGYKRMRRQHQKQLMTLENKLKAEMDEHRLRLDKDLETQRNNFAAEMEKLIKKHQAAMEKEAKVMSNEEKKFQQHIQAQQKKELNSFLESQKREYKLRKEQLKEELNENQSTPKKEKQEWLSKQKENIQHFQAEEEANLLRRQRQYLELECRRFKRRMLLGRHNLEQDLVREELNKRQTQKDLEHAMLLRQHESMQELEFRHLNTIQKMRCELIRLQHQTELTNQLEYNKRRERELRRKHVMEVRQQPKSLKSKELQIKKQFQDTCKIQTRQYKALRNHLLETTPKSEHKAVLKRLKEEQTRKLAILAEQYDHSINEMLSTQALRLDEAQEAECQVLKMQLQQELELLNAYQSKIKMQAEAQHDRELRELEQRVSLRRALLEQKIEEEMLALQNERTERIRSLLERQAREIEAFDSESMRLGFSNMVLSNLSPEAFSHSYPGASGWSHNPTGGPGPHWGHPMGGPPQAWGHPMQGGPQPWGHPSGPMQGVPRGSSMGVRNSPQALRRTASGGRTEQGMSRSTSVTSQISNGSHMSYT
T18 sequence (P07947 whole entry): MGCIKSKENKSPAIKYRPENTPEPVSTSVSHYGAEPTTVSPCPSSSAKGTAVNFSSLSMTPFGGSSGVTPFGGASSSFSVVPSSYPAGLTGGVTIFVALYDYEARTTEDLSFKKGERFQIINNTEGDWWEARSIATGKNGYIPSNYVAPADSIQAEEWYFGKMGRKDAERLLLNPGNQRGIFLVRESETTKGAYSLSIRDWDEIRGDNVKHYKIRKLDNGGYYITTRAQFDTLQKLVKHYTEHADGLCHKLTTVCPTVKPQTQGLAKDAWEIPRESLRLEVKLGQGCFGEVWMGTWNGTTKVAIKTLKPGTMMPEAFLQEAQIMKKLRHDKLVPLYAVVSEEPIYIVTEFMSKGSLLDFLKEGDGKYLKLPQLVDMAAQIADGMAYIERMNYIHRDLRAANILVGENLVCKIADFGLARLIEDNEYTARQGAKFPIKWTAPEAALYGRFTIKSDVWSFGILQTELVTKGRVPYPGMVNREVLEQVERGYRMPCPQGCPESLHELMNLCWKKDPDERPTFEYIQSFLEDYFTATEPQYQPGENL
T16 sequence (Q15759 whole entry): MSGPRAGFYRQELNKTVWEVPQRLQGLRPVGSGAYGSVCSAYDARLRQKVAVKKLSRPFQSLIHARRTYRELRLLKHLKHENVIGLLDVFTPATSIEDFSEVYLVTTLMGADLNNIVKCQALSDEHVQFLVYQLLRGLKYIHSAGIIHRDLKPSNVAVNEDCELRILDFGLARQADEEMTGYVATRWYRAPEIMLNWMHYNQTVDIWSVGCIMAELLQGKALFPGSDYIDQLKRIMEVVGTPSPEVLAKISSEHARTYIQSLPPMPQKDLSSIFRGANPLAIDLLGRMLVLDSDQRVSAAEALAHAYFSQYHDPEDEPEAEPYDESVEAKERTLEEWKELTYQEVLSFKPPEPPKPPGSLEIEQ

Nc1ccc(N=Nc2ccccc2)c(N)n1 [phenazopyridine, 2,6-diamino-3-(phenylazo)pyridine]
kinase inhibition (EGFR(S752-I759del)): 97 | remaining binding at 10 µM (Abelson (Abl)): 48% | kinase inhibition (DAPK1): 86 | kinase inhibition (PIK3CA(E545K)): 88 | kinase inhibition (MAP4K3): 74 | kinase inhibition (PRKCH): 78 | remaining binding (% of control) (RIOK3): 100 | kinase inhibition (TAOK1): 93 | kinase inhibition (MST1R): 94 | kinase inhibition (ADCK4): 90 | kinase inhibition (CLK4): 72 | kinase inhibition (PCTK1): 98 | concentration at which an increase of the FLuc signal was observed [1]: 1 µM | concentration of maximal FLuc signal [1]: 10 µM | kinase inhibition (PIK3CA(E542K)): 98 | kinase inhibition (PFTK1): 100 | number of LC3B-positive autophagosomes (HeLa cells): increased | kinase inhibition (ABL1-phosphorylated): 67 | kinase inhibition (JNK3): 91 | kinase inhibition (p38-beta): 83 | kinase inhibition (EGFR(L861Q)): 95 | kinase inhibition (YES): 100 | kinase inhibition (ACVR1): 100

Reference: PMC8371461 (Frontiers in Pharmacology, 2021)
